Tests used:
rat SERT = biological target: T1, rat SERT (Rattus norvegicus, UniProt P31652); assay: Rat monoamine transporter binding assay, SERT; conditions: [3H]-citalopram, Cerebral cortex
T1 construct: from tissue; host or cells: Sprague-Dawley rat cerebral cortex membranes
Method: (§1) Male Sprague–Dawley rats were killed by cervical dislocation, and their brains were rapidly removed and then dissected on ice. The cerebral cortex, hypothalamus and striatum were homogenised in 4 mL of assay buffer (50 mM Tris–HCl buffer, pH 7.4.) and centrifuged at 40,000× g for 10 min at 4 °C. The pellets were centrifuged twice at 20,000× g and then resuspended in 4 mL of assay buffer. […] Bio-Rad protein assay reagents (1:5 ratio) were used to analyse the protein concentration of the synaptosomal suspension.
(§2) All data for inhibition curves were analysed by nonlinear regression using Prism software (GraphPad Software Inc., San Diego, CA) to determine IC50 values. For the microdialysis experiments, two-way repeated-measures ANOVA followed by Tukey’s test was used to compare the percentage increase over baseline between groups, time and treatment as independent factors, and time as the repeated factor.

rat DAT = biological target: T2, rat DAT (Rattus norvegicus, UniProt P23977); conditions: [3H]-win35,428, Striatum, read-out: Ki values, DAT binding
T2 construct: from tissue; host or cells: Sprague-Dawley rat brain membranes (probably striatum)
Method: as §1, §2

D2 = biological target: T3, D2 (Homo sapiens, UniProt P14416); assay: CNS receptor binding, dopamine D2; conditions: HEK293 cell line, [3H]-spiperone(1)
T3 construct: expressed in transfected cells; host or cells: HEK293 cell line
Method: (§3) Albiflorin (10 μM) was tested for numerous other potential binding targets by using standard receptor binding procedures. The tested targets included the following receptors: D1, D2, D3, D4, D5, 5-HT1A, 5-HT1B, 5-HT1D, 5-HT2a, 5-HT2C, 5-HT3, 5-HT5A, 5-HT6, 5-HT7, α1A, α1B, α2A, β1, M1, M2, M3, M4, M5, μ, κ, δ, A1, A2A, H1, H2, H3, H4.

5-HT2C = 5-HT2C (Homo sapiens, UniProt P28335); assay: CNS receptor binding, 5-HT2C; conditions: CHO cell lines, [3H]-mesulergine(1)
Method: as §3

M1 = M1 (Homo sapiens, UniProt P11229); assay: CNS receptor binding, muscarinic M1; conditions: CHO cell line, [3H]-NMS(1)
Method: as §3

δ = δ (Homo sapiens, UniProt P41143); assay: CNS receptor binding, opioid δ; conditions: CHO cell line, [3H]-dipnorphine(1)
Method: as §3

A1 = A1 (Homo sapiens, UniProt P30542); assay: CNS receptor binding, adenosine A1; conditions: CHO cell line, [3H]-DPCPX(1)
Method: as §3

A2A = A2A (Homo sapiens, UniProt P29274); assay: CNS receptor binding, adenosine A2A; conditions: HEK293 cell line, [3H]-CGS21680(10), read-out: IC50 values for albiflorin
Method: as §3

hypothalamic NE levels = assay: In vivo microdialysis, extracellular NE; parameters: species or system rats
Method: (§4) The effect of albiflorin on extracellular monoamine levels in […] was determined using methods previously described. Microdialysis probes (CMA Microdialysis) with an active membrane surface of 2 mm were perfused with artificial cerebrospinal fluid (125 mM NaCl, 3 mM KCl, 0.75 mM MgSO4 and 1.2 mM CaCl2, pH 7.4) in situ for at least 18 h before experimentation. The microdialysis probe was then implanted via the guide cannula into the hypothalamus and perfused with artificial cerebral spinal fluid at a flow rate of 1 μL/min. A 3-h stabilisation period was allowed after probe implantation, and dialysate sampling was conducted according to previously described methods. […] All subsequent values were expressed as a percentage of the mean preinjection value (i.e., percentage of baseline). […] For a minimum of 3 h after albiflorin administration, dialysis samples were collected every 20 min and analysed to determine the levels of NE, 5-HT and DA. […] A 20-μL sample from the hypothalamus was analysed for 5-HT, NE and DA content using methods described previously. […] External standard curves were used to quantify the amounts of NE, 5-HT and DA in each sample, which was calculated using the area under the curve.
(§5) All data for inhibition curves were analysed by nonlinear regression using Prism software (GraphPad Software Inc., San Diego, CA) to determine IC50 values. […]

[1] = system: DA levels in the hypothalamus; assay: In vivo microdialysis, extracellular DA; conditions: oral, 3.5, 7.0 and 14.0 mg/kg, rats
Method: as §4, §5

duration of immobility = system: duration of immobility; parameters: method as in PMID 26719283; conditions: mice; short- and long-term administration; cited from earlier work
[2] = read-out: IC50 values for albiflorin

Chain of M1 (P11229 whole entry): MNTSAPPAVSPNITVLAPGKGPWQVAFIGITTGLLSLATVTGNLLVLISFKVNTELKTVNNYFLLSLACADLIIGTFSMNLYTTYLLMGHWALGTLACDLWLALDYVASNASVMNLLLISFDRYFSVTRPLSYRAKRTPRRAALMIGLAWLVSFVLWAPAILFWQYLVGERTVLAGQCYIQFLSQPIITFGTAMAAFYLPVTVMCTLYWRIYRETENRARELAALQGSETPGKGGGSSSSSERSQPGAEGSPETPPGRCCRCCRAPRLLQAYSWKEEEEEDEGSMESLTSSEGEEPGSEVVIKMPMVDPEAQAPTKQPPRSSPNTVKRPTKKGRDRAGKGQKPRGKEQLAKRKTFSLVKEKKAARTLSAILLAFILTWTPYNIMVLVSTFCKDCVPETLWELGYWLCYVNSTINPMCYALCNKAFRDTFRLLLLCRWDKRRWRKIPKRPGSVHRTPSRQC
Chain of δ (P41143 whole entry): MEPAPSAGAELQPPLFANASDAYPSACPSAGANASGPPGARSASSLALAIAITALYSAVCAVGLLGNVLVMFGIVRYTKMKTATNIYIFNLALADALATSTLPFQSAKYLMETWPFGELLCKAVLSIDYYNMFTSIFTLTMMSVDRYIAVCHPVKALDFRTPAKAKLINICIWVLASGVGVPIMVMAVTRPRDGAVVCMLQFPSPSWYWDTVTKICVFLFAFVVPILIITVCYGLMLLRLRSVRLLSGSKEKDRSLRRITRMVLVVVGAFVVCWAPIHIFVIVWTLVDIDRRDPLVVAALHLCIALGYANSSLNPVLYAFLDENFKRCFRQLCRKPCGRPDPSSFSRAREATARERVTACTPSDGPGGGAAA
Chain of 5-HT2C (P28335 33-458): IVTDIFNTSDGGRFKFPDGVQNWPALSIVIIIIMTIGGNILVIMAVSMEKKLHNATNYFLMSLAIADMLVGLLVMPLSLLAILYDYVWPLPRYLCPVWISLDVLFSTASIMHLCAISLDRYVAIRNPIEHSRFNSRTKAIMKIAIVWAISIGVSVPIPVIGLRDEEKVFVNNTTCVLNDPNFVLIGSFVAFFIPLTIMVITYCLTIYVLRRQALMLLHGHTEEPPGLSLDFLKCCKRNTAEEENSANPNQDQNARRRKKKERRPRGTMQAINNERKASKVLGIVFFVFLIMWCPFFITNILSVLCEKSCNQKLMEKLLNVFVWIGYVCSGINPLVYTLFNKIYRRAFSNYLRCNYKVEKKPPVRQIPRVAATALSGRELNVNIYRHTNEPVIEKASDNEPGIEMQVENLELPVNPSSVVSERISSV
T3 sequence (P14416 whole entry): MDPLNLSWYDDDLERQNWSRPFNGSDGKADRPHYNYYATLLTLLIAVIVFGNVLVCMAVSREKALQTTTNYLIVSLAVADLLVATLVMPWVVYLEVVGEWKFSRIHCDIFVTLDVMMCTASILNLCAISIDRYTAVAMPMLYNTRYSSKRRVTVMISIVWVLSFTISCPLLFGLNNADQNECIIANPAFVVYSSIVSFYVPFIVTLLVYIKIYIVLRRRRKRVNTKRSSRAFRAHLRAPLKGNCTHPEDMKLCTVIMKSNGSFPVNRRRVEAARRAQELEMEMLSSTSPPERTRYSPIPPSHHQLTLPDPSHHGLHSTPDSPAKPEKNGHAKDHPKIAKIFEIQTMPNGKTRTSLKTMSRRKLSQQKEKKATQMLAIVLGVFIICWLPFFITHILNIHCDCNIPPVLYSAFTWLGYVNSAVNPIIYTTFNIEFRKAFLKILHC
Chain of A1 (P30542 whole entry): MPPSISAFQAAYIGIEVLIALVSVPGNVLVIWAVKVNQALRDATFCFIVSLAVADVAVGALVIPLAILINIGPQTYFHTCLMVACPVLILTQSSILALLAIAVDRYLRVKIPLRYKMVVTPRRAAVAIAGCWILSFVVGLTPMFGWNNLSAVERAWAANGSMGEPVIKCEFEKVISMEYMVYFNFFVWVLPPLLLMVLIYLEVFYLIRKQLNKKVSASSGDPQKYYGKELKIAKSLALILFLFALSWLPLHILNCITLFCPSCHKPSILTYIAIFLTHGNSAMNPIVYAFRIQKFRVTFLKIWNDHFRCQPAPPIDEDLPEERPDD
T1 sequence (P31652 whole entry): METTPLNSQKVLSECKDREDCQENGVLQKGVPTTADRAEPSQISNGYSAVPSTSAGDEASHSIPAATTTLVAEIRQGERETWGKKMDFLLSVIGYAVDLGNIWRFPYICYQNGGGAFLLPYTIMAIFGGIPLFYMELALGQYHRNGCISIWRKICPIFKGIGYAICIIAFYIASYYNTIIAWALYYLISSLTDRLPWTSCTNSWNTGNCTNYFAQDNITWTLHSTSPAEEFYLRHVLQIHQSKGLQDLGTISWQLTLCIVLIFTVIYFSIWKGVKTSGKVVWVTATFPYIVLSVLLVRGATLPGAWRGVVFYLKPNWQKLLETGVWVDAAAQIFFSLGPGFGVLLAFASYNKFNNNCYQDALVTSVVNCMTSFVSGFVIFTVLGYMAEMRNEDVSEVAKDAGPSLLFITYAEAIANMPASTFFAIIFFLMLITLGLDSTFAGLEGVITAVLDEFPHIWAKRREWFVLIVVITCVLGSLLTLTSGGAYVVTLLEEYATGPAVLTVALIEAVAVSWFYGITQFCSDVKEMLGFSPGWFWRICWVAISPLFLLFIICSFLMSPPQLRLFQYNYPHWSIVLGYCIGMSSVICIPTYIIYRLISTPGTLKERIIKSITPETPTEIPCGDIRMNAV
T2 sequence (P23977 whole entry): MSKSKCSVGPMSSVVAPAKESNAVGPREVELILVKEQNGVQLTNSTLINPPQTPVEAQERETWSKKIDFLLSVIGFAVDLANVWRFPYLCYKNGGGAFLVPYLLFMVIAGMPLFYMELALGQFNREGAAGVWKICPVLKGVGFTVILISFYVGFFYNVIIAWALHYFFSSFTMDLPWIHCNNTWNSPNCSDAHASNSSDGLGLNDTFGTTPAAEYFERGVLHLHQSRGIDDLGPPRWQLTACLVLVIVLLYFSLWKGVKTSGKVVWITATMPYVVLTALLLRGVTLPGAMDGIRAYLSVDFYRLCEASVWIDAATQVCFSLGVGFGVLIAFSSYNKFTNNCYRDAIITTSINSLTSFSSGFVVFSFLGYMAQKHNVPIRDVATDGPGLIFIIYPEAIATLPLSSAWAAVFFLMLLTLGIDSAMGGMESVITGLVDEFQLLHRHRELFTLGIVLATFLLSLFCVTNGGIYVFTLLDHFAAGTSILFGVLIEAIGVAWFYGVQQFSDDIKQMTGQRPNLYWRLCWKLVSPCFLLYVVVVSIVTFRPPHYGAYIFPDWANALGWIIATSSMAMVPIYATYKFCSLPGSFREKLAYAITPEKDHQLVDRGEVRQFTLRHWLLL
Chain of A2A (P29274 whole entry): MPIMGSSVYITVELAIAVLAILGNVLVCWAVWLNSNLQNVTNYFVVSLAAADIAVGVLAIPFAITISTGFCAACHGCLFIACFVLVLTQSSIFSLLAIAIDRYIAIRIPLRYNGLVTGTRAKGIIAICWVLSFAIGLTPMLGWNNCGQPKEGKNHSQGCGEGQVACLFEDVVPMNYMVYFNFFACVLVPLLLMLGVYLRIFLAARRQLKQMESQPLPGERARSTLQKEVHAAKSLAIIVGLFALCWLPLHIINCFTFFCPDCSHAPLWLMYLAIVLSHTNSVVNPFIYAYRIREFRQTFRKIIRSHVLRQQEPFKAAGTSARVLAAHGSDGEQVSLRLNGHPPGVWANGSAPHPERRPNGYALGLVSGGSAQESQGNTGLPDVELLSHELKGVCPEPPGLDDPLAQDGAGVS

In the case of `C[C@]12C[C@@H](O)[C@@H]3C[C@@]1(O[C@@H]1O[C@H](CO)[C@@H](O)[C@H](O)[C@H]1O)[C@@]3(COC(=O)c1ccccc1)C(=O)O2` [albiflorin, Albiflorin], the Ki (rat SERT) is reported as 0.00525 ± 0.00017 µM, the Ki (rat DAT) is reported as 3.656 ± 0.0254 µM and the “% Inhibition of binding at 10 μM albiflorin” value (shortened to “% Inhibition of binding”) (D2) is reported as 12.50%. For the same molecule, the IC50 (D2; [2]) was greater than 10 µM, the “% Inhibition of binding” value (5-HT2C) was 33.66% and the IC50 (5-HT2C; [2]) was greater than 10 µM. For the same molecule, the “% Inhibition of binding” value (M1) was 21.28%, the IC50 (M1; [2]) was greater than 10 µM and the “% Inhibition of binding” value (δ) was 66.33%. For the same molecule, the IC50 (δ; [2]) was 3.66 ± 0.201 µM, the “% Inhibition of binding” value (A1) was 21.23% and the IC50 (A1; [2]) was greater than 10 µM. For the same molecule, the IC50 (A2A) was greater than 10 µM, the “effect on hypothalamic NE levels” value (hypothalamic NE levels; acute oral administration, 3.5, 7.0, 14.0 mg/kg, freely moving rats) was “dose- and time-dependent increase” and the “time of peak NE increase after administration” value (hypothalamic NE levels; oral, rats, microdialysis) was 1 h. For the same molecule, the “effect on DA levels in the hypothalamus” value [1] was “not elevated” and the “antidepressant-like effect, tail-suspension test” value (duration of immobility) was “decreases in the duration of immobility”.
